Results published in the supplement of paper PMC10307832.

Key:
Test in all cases: relative viability (nuclei count vs DMSO), 5 days (fraction); higher = more cells survive
[1] = compound: COc1cc2nc(N3CCCN(C)CC3)nc(NC3CCN(Cc4ccccc4)CC3)c2cc1OC + Nc1nc2[nH]cc(CCc3ccc(C(=O)N[C@@H](CCC(=O)O)C(=O)O)cc3)c2c(=O)[nH]1 [Pemetrexed] (partner 0.2 µM)
In short: (§1)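 Relative viability was taken as the ratio of nuclei in treated wells to nuclei in vehicle wells. Lung cancer cell lines in 1536-well plates received compounds by pin tool one day after seeding, either one drug alone or a fixed anchor-drug dose plus five library-drug doses (not always all listed) in √10 steps. Nuclei were counted on 4× images after 5 days of treatment, and values are medians of duplicate plates.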

AZD6482 + Foretinib = compound: Cc1cc([C@@H](C)Nc2ccccc2C(=O)O)c2nc(N3CCOCC3)cc(=O)n2c1 [AZD6482] + COc1cc2c(Oc3ccc(NC(=O)C4(C(=O)Nc5ccc(F)cc5)CC4)cc3F)ccnc2cc1OCCCN1CCOCC1 [Foretinib] (partner 0.25 µM)
In short: as §1

AZD6482 + Tozasertib = compound: Cc1cc([C@@H](C)Nc2ccccc2C(=O)O)c2nc(N3CCOCC3)cc(=O)n2c1 [AZD6482] + Cc1cc(Nc2cc(N3CCN(C)CC3)nc(Sc3ccc(NC(=O)C4CC4)cc3)n2)n[nH]1 [Tozasertib] (partner 0.1 µM)
In short: as §1

AZD6482 + Pemetrexed = compound: Cc1cc([C@@H](C)Nc2ccccc2C(=O)O)c2nc(N3CCOCC3)cc(=O)n2c1 [AZD6482] + Nc1nc2[nH]cc(CCc3ccc(C(=O)N[C@@H](CCC(=O)O)C(=O)O)cc3)c2c(=O)[nH]1 [Pemetrexed] (partner 0.2 µM)
In short: as §1

Cell Line | relative viability ([1]; first compound 0.2 µM) | relative viability ([1]; first compound 0.6325 µM) | relative viability ([1]; first compound 2 µM) | relative viability ([1]; first compound 6.325 µM) | relative viability (AZD6482 + Foretinib; first compound 0.08 µM) | relative viability (AZD6482 + Foretinib; first compound 0.253 µM) | relative viability (AZD6482 + Foretinib; first compound 0.8 µM) | relative viability (AZD6482 + Foretinib; first compound 2.53 µM) | relative viability (AZD6482 + Foretinib; first compound 8 µM) | relative viability (AZD6482 + Tozasertib; first compound 0.08 µM) | relative viability (AZD6482 + Tozasertib; first compound 0.253 µM) | relative viability (AZD6482 + Tozasertib; first compound 0.8 µM) | relative viability (AZD6482 + Tozasertib; first compound 2.53 µM) | relative viability (AZD6482 + Tozasertib; first compound 8 µM) | relative viability (AZD6482 + Pemetrexed; first compound 0.08 µM) | relative viability (AZD6482 + Pemetrexed; first compound 0.253 µM) | relative viability (AZD6482 + Pemetrexed; first compound 0.8 µM) | relative viability (AZD6482 + Pemetrexed; first compound 2.53 µM) | relative viability (AZD6482 + Pemetrexed; first compound 8 µM)
SK-MES-1 | 1.06 | 0.887 | 0.904 | 0.495 | 0.519 | 0.783 | 0.565 | 0.422 | 0.403 | 0.877 | 0.939 | 0.86 | 0.571 | 0.549 | 0.84 | 0.974 | 0.876 | 0.394 | 0.532
SW 1573 | 0.797 | 0.682 | 0.733 | 0.623 | 0.792 | 0.776 | 0.862 | 0.726 | 0.608 | 0.158 | 0.17 | 0.184 | 0.123 | 0.143 | 0.881 | 0.822 | 0.827 | 0.723 | 0.75
NCI-H661 | 0.882 | 0.894 | 0.904 | 0.923 | 0.962 | 1.06 | 1.14 | 0.723 | 0.815 | 0.365 | 0.362 | 0.407 | 0.372 | 0.383 | 0.94 | 1.01 | 0.974 | 0.74 | 0.803
PC-3 [JPC-3] | 0.972 | 1.15 | 1.11 | 1.01 | 0.928 | 1.09 | 1.09 | 0.877 | 0.875 | 0.785 | 0.793 | 0.892 | 0.78 | 0.823 | 1.07 | 1.05 | 1.04 | 0.634 | 0.533
LC-2-ad | 0.301 | 0.27 | 0.268 | 0.264 | 0.902 | 0.939 | 0.878 | 0.714 | 0.787 | 0.392 | 0.428 | 0.452 | 0.5 | 0.379 | 0.279 | 0.293 | 0.274 | 0.302 | 0.292
CAL-12T | 1.23 | 1.01 | 1.19 | 1.04 | 1.11 | 1.22 | 1.2 | 0.792 | 1 | 0.303 | 0.338 | 0.37 | 0.228 | 0.218 | 1.08 | 1.12 | 1.16 | 0.867 | 1.31
RERF-LC-KJ | 0.419 | 0.455 | 0.464 | 0.447 | 0.791 | 0.825 | 0.822 | 0.781 | 0.7 | 0.447 | 0.513 | 0.49 | 0.465 | 0.388 | 0.461 | 0.459 | 0.465 | 0.439 | 0.449
NCI-H1650 | 0.389 | 0.407 | 0.441 | 0.313 | 0.902 | 0.937 | 0.933 | 0.738 | 0.684 | 0.36 | 0.378 | 0.303 | 0.336 | 0.393 | 0.332 | 0.295 | 0.372 | 0.287 | 0.361
BEN | 0.827 | 0.943 | 1.01 | 0.716 | 0.675 | 0.62 | 0.701 | 0.558 | 0.739 | 0.463 | 0.526 | 0.472 | 0.493 | 0.495 | 0.766 | 0.589 | 0.829 | 0.512 | 0.703
EMC-BAC-2 | 0.437 | 0.402 | 0.413 | 0.486 | 0.861 | 0.94 | 0.969 | 0.718 | 0.698 | 0.285 | 0.288 | 0.274 | 0.287 | 0.272 | 0.415 | 0.45 | 0.438 | 0.414 | 0.413
LU99A | 0.17 | 0.185 | 0.177 | 0.187 | 0.829 | 0.828 | 0.77 | 0.65 | 0.633 | 0.281 | 0.294 | 0.253 | 0.263 | 0.247 | 0.187 | 0.2 | 0.158 | 0.17 | 0.172
NCI-H2170 | 0.256 | 0.26 | 0.271 | 0.274 | 0.977 | 1 | 0.955 | 0.922 | 0.785 | 0.678 | 0.681 | 0.615 | 0.643 | 0.47 | 0.257 | 0.242 | 0.265 | 0.252 | 0.251
NCI-H2347 | 0.394 | 0.4 | 0.494 | 0.538 | 0.646 | 0.569 | 0.946 | 0.557 | 0.74 | 0.321 | 0.388 | 0.364 | 0.357 | 0.371 | 0.382 | 0.455 | 0.362 | 0.38 | 0.364
NCI-H1993 | 0.602 | 0.644 | 0.579 | 0.549 | 0.674 | 0.745 | 0.846 | 0.558 | 0.562 | 0.446 | 0.609 | 0.55 | 0.527 | 0.562 | 0.464 | 0.58 | 0.48 | 0.4 | 1.03
NCI-H322M | 0.606 | 0.623 | 0.581 | 0.584 | 0.823 | 0.847 | 0.897 | 0.543 | 0.738 | 0.442 | 0.461 | 0.453 | 0.319 | 0.384 | 0.572 | 0.61 | 0.62 | 0.49 | 0.498
NCI-H838 | 0.259 | 0.263 | 0.293 | 0.243 | 0.855 | 0.964 | 0.873 | 0.581 | 0.469 | 0.264 | 0.266 | 0.243 | 0.192 | 0.222 | 0.287 | 0.264 | 0.25 | 0.226 | 0.232
HARA | 0.258 | 0.227 | 0.227 | 0.269 | 0.811 | 0.809 | 0.889 | 0.663 | 0.61 | 0.212 | 0.108 | 0.0865 | 0.111 | 0.0791 | 0.217 | 0.241 | 0.278 | 0.254 | 0.253
NCI-H2087 | 0.663 | 0.622 | 0.686 | 0.656 | 1.07 | 0.972 | 1.12 | – | 1.08 | 0.282 | 0.268 | 0.221 | – | 0.205 | 0.682 | 0.63 | 0.596 | 0.593 | 0.674
NCI-H1437 | 0.279 | 0.293 | 0.36 | 0.324 | 1.2 | 1.33 | 1.31 | 1.13 | 0.923 | 0.393 | 0.408 | 0.301 | 0.325 | 0.254 | 0.314 | 0.307 | 0.306 | 0.274 | 0.225
ChaGo-K-1 | 0.255 | 0.256 | 0.262 | 0.264 | 0.973 | 0.863 | 0.833 | 0.894 | 0.968 | 0.206 | 0.22 | 0.219 | 0.2 | 0.206 | 0.259 | 0.262 | 0.271 | 0.262 | 0.258
NCI-H650 | 0.935 | 0.877 | 0.924 | 0.92 | 1.02 | – | 0.978 | 0.651 | 0.704 | 0.722 | – | 0.751 | 0.588 | 0.443 | 1.01 | 0.859 | 0.874 | 0.568 | 0.441
COR-L23 | 0.205 | 0.21 | 0.208 | 0.199 | 0.888 | 1.04 | 1.03 | 0.81 | 0.799 | 0.183 | 0.192 | 0.162 | 0.153 | 0.171 | 0.198 | 0.205 | 0.197 | 0.182 | 0.204
COR-L 105 | 1.08 | 1.22 | 1.15 | 0.798 | 1.08 | 0.711 | 1.03 | 0.744 | 0.932 | 0.362 | 0.348 | 0.352 | 0.336 | 0.344 | 0.935 | 1.13 | 1.26 | 0.761 | 1.21
LK-2 | 0.311 | 0.276 | 0.296 | 0.273 | 1.3 | 1.08 | 1.22 | 0.822 | 0.948 | 0.142 | 0.162 | 0.15 | 0.182 | 0.168 | 0.276 | 0.276 | 0.263 | 0.193 | 0.176
201T | 0.31 | 0.334 | 0.335 | 0.279 | 1.07 | 1.01 | 1.11 | 0.734 | 1.08 | 0.904 | 0.889 | 0.88 | 0.766 | 0.875 | 0.31 | 0.295 | 0.27 | 0.314 | 0.342
NCI-H596 | 0.515 | 0.534 | 0.503 | 0.468 | 0.84 | 0.853 | 0.766 | 0.635 | 0.599 | 0.854 | 1.16 | 0.725 | 0.772 | 0.666 | 0.451 | 0.485 | 0.486 | 0.462 | 0.492
H3255 | 0.563 | 0.557 | 0.595 | 0.547 | 1.03 | 0.662 | 0.898 | 0.498 | 0.627 | 0.607 | 0.595 | 0.42 | 0.442 | 0.594 | 0.535 | 0.577 | 0.583 | 0.464 | 0.507
NCI-H647 | 0.161 | 0.199 | 0.19 | 0.152 | 0.86 | 1.3 | 0.946 | 0.721 | 0.623 | 0.23 | 0.26 | 0.192 | 0.145 | 0.23 | 0.154 | 0.161 | 0.191 | 0.16 | 0.158
